Measurements as given in patent US10822348B2, “Inhibitors of Bruton's tyrosine kinase and methods of their use” (JANSSEN PHARMACEUTICA NV, priority 2015, dated 2020).

Target: unphosphorylated-BTK kinase domain (UP-BTK), GST-tagged human BTK (389-659aa) (Homo sapiens (Human), UniProt Q06187)
Assay: BTK kinase Lanthascreen binding assay
Conditions: negative log of the IC50 in molar; 60 minutes incubation, 50 nM Tracer 236
Experimental: BTK Kinase Lanthascreen Binding Assay:
A BTK kinase lanthascreen binding assay monitors compound binding to unphosphorylated-BTK kinase domain (UP-BTK), by competing with a fluorescent labeled tracer. […] Data were analyzed using Xlfit™ version 5.3 from ID Business Solutions (Guildford), Microsoft Excel add-in. pIC50 refers to the negative log of the IC50 in molar.

unphosphorylated-BTK kinase domain (UP-BTK), GST-tagged human BTK (389-659aa), sequence (Q06187 389-659): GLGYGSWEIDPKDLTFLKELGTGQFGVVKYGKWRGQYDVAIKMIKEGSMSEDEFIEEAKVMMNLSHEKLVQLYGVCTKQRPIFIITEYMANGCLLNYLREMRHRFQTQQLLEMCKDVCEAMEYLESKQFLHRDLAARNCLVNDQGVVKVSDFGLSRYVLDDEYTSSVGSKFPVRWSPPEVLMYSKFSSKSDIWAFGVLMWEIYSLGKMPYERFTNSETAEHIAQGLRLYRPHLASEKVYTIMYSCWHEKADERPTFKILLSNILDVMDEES

SMILES	BTK_I_binding pIC50
CNC/C=C/C(=O)N1CCC[C@@H](NC(=O)c2sc3nccc4c3c2NC(=O)N4c2ccc(Oc3ccccc3)cc2C)C1 (single isomer, unassigned) [Example 23, (R,E)-5-(*S)-(2-Methyl-4-phenoxyphenyl)-N-(1-(4-(methylamino)but-2-enoyl)piperidin-3-yl)-4-oxo-4,5-dihydro-3H-1-thia-3,5,8-triazaacenaphthylene-2-carboxamide]	7.5
CNC/C=C/C(=O)N1CCC[C@@H](NC(=O)c2sc3nccc4c3c2NC(=O)N4c2ccc(Oc3ccccc3)cc2C)C1 (single isomer, unassigned) [Example 38, (R,E)-5-(*S)-(2-Methyl-4-phenoxyphenyl)-N-(1-(4-(methylamino)but-2-enoyl)piperidin-3-yl)-4-oxo-4,5-dihydro-3H-1-thia-3,5,8-triazaacenaphthylene-2-carboxamide]	7.3
C=CC(=O)N1CCC[C@H](NC(=O)c2sc3nccc4c3c2NC(=O)N4c2ccc(Oc3ccccc3)cc2C)C1 (single isomer, unassigned) [Example 44, (S)—N-(1-Acryloylpiperidin-3-yl)-5-(*S)-(2-methyl-4-phenoxyphenyl)-4-oxo-4,5-dihydro-3H-1-thia-3,5,8-triazaacenaphthylene-2-carboxamide]	7.4
Cc1cc(Oc2ccccc2)ccc1N1C(=O)Nc2c(C(=O)N[C@@H]3CCCN(C(=O)CN(C)C)C3)sc3nccc1c23 (single isomer, unassigned) [Example 56, (R)—N-(1-(2-(Dimethylamino)acetyl)piperidin-3-yl)-5-(*S)-(2-methyl-4-phenoxyphenyl)-4-oxo-4,5-dihydro-3H-1-thia-3,5,8-triazaacenaphthylene-2-carboxamide]	7.4
C=CC(=O)N1CCC[C@H](NC(=O)c2sc3nccc4c3c2NC(=O)N4c2ccc(Oc3ccccc3)cc2C)C1 (single isomer, unassigned) [Example 82, (S)—N-(1-acryloylpiperidin-3-yl)-5-(*S)-(2-methyl-4-phenoxyphenyl)-4-oxo-4,5-dihydro-3H-1-thia-3,5,8-triazaacenaphthylene-2-carboxamide]	7.2
C=CC(=O)N1CCC[C@@H](NC(=O)c2sc3nccc4c3c2NC(=O)N4c2ccc(Oc3ccccc3)cc2C)C1 (single isomer, unassigned) [Example 87, (R)—N-(1-Acryloylpiperidin-3-yl)-5-(*R)-(2-methyl-4-phenoxyphenyl)-4-oxo-4,5-dihydro-3H-1-thia-3,5,8-triazaacenaphthylene-2-carboxamide]	6.9
Cc1cc(Oc2ccccc2)ccc1N1C(=O)Nc2c(C(=O)N[C@H]3CCCOC3)sc3nccc1c23 (single isomer, unassigned) [Example 88, (S)-5-(*S)-(2-Methyl-4-phenoxyphenyl)-4-oxo-N-(tetrahydro-2H-pyran-3-yl)-4,5-dihydro-3H-1-thia-3,5,8-triazaacenaphthylene-2-carboxamide]	7.6
Cc1cc(Oc2ccccc2)ccc1N1C(=O)Nc2c(C(=O)N[C@@H]3CCCOC3)sc3nccc1c23 (single isomer, unassigned) [Example 96, (R)-5-(*S)-(2-Methyl-4-phenoxyphenyl)-4-oxo-N-(tetrahydro-2H-pyran-3-yl)-4,5-dihydro-3H-1-thia-3,5,8-triazaacenaphthylene-2-carboxamide]	7.8
Cc1cc(Oc2ccccc2)ccc1N1C(=O)Nc2c(C(=O)N[C@@H]3CCCN(C(=O)/C(C#N)=C/C(C)(C)N4CCOCC4)C3)sc3nccc1c23 (single isomer, unassigned) [Example 112, (R,E)-N-(1-(2-Cyano-4-methyl-4-morpholinopent-2-enoyl)piperidin-3-yl)-5-(*R)-(2-methyl-4-phenoxyphenyl)-4-oxo-4,5-dihydro-3H-1-thia-3,5,8-triazaacenaphthylene-2-carboxamide]	6.9
Cc1cc(Oc2ccccc2)ccc1N1C(=O)Nc2c(C(=O)N[C@@H]3CCCN(C)C3)sc3nccc1c23 (single isomer, unassigned) [Example 127, (R)-5-(*S)-(2-Methyl-4-phenoxyphenyl)-N-(1-methylpiperidin-3-yl)-4-oxo-4,5-dihydro-3H-1-thia-3,5,8-triazaacenaphthylene-2-carboxamide]	7.3
Cc1cc(Oc2ccccc2)ccc1N1C(=O)Nc2c(C(=O)N[C@@H]3CCN(C)C3)sc3nccc1c23 (single isomer, unassigned) [Example 147, (R)-5-(*S)-(2-Methyl-4-phenoxyphenyl)-N-(1-methylpyrrolidin-3-yl)-4-oxo-4,5-dihydro-3H-1-thia-3,5,8-triazaacenaphthylene-2-carboxamide]	7.4
C=CC(=O)N1CC[C@@H](NC(=O)c2sc3nccc4c3c2NC(=O)N4c2ccc(Oc3ccccc3)cc2C)C1 (single isomer, unassigned) [Example 169, (R)—N-(1-Acryloylpyrrolidin-3-yl)-5-(*R)-(2-methyl-4-phenoxyphenyl)-4-oxo-4,5-dihydro-3H-1-thia-3,5,8-triazaacenaphthylene-2-carboxamide]	6.4
Cc1cc(Oc2ccccc2)ccc1N1C(=O)Nc2c(C(=O)N[C@@H]3CCCN(C)C3)sc3nccc1c23 (single isomer, unassigned) [Example 180, (R)-5-(*R)-(2-Methyl-4-phenoxyphenyl)-N-(1-methylpiperidin-3-yl)-4-oxo-4,5-dihydro-3H-1-thia-3,5,8-triazaacenaphthylene-2-carboxamide]	6.0
N#C/C(=C\C1CC1)C(=O)N1CCC[C@@H](NC(=O)c2sc3nccc4c3c2NC(=O)N4c2c(Cl)ccc3c2OCO3)C1 (single isomer, unassigned) [Example 239]	7.4
Cc1cc(Oc2ccccc2)ccc1N1C(=O)Nc2c(C(=O)N[C@H]3CCCN(C)C3)sc3nccc1c23 (single isomer, unassigned) [Example 249, (S)-5-(*S)-(2-Methyl-4-phenoxyphenyl)-N-(1-methylpiperidin-3-yl)-4-oxo-4,5-dihydro-3H-1-thia-3,5,8-triazaacenaphthylene-2-carboxamide]	6.6
Cc1cc(Oc2ccccc2)ccc1N1C(=O)Nc2c(C(=O)N[C@H]3CCCOC3)sc3nccc1c23 (single isomer, unassigned) [Example 267, (S)-5-(*R)-(2-Methyl-4-phenoxyphenyl)-4-oxo-N-(tetrahydro-2H-pyran-3-yl)-4,5-dihydro-3H-1-thia-3,5,8-triazaacenaphthylene-2-carboxamide]	6.3

Same assay, conditions: unphosphorylated-BTK kinase domain; 60 minutes incubation; pIC50 = negative log of the IC50 in molar

SMILES	BTK_I_binding pIC50
Cc1cc(Oc2ccccc2)ccc1N1C(=O)Nc2c(C(=O)N[C@@H]3CCCN(C(=O)CN(C)C)C3)sc3nccc1c23 (single isomer, unassigned) [Example 287, (R)—N-(1-(2-(Dimethylamino)acetyl)piperidin-3-yl)-5-(*R)-(2-methyl-4-phenoxyphenyl)-4-oxo-4,5-dihydro-3H-1-thia-3,5,8-triazaacenaphthylene-2-carboxamide]	6.2
C=CC(=O)N1CCC[C@H](NC(=O)c2sc3nccc4c3c2NC(=O)N4c2ccc(Oc3ccccc3)cc2C)C1 (single isomer, unassigned) [Example 289, (S)—N-(1-Acryloylpiperidin-3-yl)-5-(*R)-(2-methyl-4-phenoxyphenyl)-4-oxo-4,5-dihydro-3H-1-thia-3,5,8-triazaacenaphthylene-2-carboxamide]	6.2
CNC/C=C/C(=O)N1CCC[C@@H](NC(=O)c2sc3nccc4c3c2NC(=O)N4c2ccc(Oc3ccccc3)cc2C)C1 (single isomer, unassigned) [Example 292, (R,E)-5-(*R)-(2-Methyl-4-phenoxyphenyl)-N-(1-(4-(methylamino)but-2-enoyl)piperidin-3-yl)-4-oxo-4,5-dihydro-3H-1-thia-3,5,8-triazaacenaphthylene-2-carboxamide]	6.1
Cc1cc(Oc2ccccc2)ccc1N1C(=O)Nc2c(C(=O)N[C@@H]3CCCNC3)sc3nccc1c23 (single isomer, unassigned) [Example 300, (R)-5-(*R)-(2-methyl-4-phenoxyphenyl)-4-oxo-N-(piperidin-3-yl)-4,5-dihydro-3H-1-thia-3,5,8-triazaacenaphthylene-2-carboxamide]	6.0
Cc1cc(Oc2ccccc2)ccc1N1C(=O)Nc2c(C(=O)N[C@@H]3CCCOC3)sc3nccc1c23 (single isomer, unassigned) [Example 307, (R)-5-(*R)-(2-Methyl-4-phenoxyphenyl)-4-oxo-N-(tetrahydro-2H-pyran-3-yl)-4,5-dihydro-3H-1-thia-3,5,8-triazaacenaphthylene-2-carboxamide]	6.0
C=CC(=O)N1CCC[C@@H](NC(=O)c2sc3nccc4c3c2NC(=O)N4c2c(Cl)ccc3c2OCO3)C1 (single isomer, unassigned) [Example 321, (R)—N-(1-Acryloylpiperidin-3-yl)-5-(*R)-(5-chlorobenzo[d][1,3]dioxol-4-yl)-4-oxo-4,5-dihydro-3H-1-thia-3,5,8-triazaacenaphthylene-2-carboxamide]	7.1
Cc1cc(Oc2ccccc2)ccc1N1C(=O)Nc2c(C(=O)N[C@@H]3CCCN(C#N)C3)sc3nccc1c23 (single isomer, unassigned) [Example 329, (R)—N-(1-Cyanopiperidin-3-yl)-5-(*R)-(2-methyl-4-phenoxyphenyl)-4-oxo-4,5-dihydro-3H-1-thia-3,5,8-triazaacenaphthylene-2-carboxamide]	5.7
Cc1cc(Oc2ccccc2)ccc1N1C(=O)Nc2c(C(=O)N[C@H]3CCCN(C)C3)sc3nccc1c23 (single isomer, unassigned) [Example 339, (S)-5-(*R)-(2-Methyl-4-phenoxyphenyl)-N-(1-methylpiperidin-3-yl)-4-oxo-4,5-dihydro-3H-1-thia-3,5,8-triazaacenaphthylene-2-carboxamide]	5.4
